One data set has as its system S. aureus LMG10147. Description: Spot-on-lawn assay. As to conditions: triplicate. Format: cell-based.
A further data set has as its system Enterococcus faecium. Description: Agar well diffusion assay against Enterococcus faecium. Format: cell-based. The note with it: for Antibacterial activity against Enterococcus faecium (in words): Figure 5, HPLC-purified peptide, 30 μL of 0.1 mg mL^–1 per well. Here is the method:
(§1) To confirm that this procedure yields the modified nisin and at high purity, HPLC analysis of purified 47 was performed (Figure S2). Based on the area of the peaks, the purity of 47 is 96%. Subsequently, 30 μL of 0.1 mg mL^–1 purified compound was added to the well to assess their activity.
(§2) Cultures grown overnight were introduced into 0.8% LB agar for Listeria monocytogenes or GM17 agar for Enterococcus faecium at a temperature of 45 °C, reaching a final concentration of 0.1% (v/v). Subsequently, 30 mL of the mixture was poured onto the plate. Upon solidification of the agar, 8 mm wells were created, and 30 μL of the aforementioned clicked solutions was spotted into the wells. The agar plate underwent overnight incubation at 37 °C followed by measurement of inhibition zones. By comparing the antimicrobial impact of the click chemistry products in this screening assay, we assume that the yields of the different reactions are similar. Zone diameters were recorded in millimeters, with the zone area (πr^2) minus the well area (πr^2) measured in millimeters.[44]
On the technique in general: In agar diffusion tests the substance spreads into inoculated agar from a disc or well.

Another data set relates to E. faecium LMG11423. In words: Spot-on-lawn assay. The note with it: triplicate. Format: cell-based.
In data set [1] the test system is L. monocytogenes LMG10470. Description: Spot-on-lawn assay. Format: cell-based. As to conditions: triplicate.
A further data set deals with Escherichia coli CECT101. In words: Spot-on-lawn assay. The data set is classed as cell-based. As to conditions: triplicate.
In a further data set the test system is Listeria monocytogenes. Description: Agar well diffusion assay against Listeria monocytogenes. The data set is classed as cell-based. The note with it: Figure 4, second round; 30 μL click reaction solution in 8 mm well, LB agar, overnight 37 °C; triplicate. The protocol: as §1, §2
Data set [2] deals with E. faecium LMG16003 (VRE). In words: Spot-on-lawn assay. The note with it: triplicate. Format: cell-based.
In data set [3] the test system is S. aureus LMG15975 (MRSA). Description: Spot-on-lawn assay. The data set is classed as cell-based. The note with it: triplicate.
For another data set, the system named is L. monocytogenes TT82E. Description: Spot-on-lawn assay. The data set is classed as cell-based. The note with it: triplicate.
For data set [4], the system named is E. faecalis LMG16216 (VRE). Description: Spot-on-lawn assay. Format: cell-based. As to conditions: triplicate.
Data set [5] relates to E. faecium ATCC U0317 (ACRE). Description: Spot-on-lawn assay. The note with it: triplicate. Format: cell-based.
In the next data set the test system is B. cereus CH-85. Description: Spot-on-lawn assay. Format: cell-based. The note with it: triplicate.
The test system of data set [6] is E. faecium ATCC E1162 (ARE). In words: Spot-on-lawn assay. As to conditions: triplicate. Format: cell-based.
For data set [7], the system named is E. faecium ATCC E1321 (AGRE). In words: Spot-on-lawn assay. The data set is classed as cell-based. The note with it: triplicate.
Data set [8] is described as follows: Spot-on-lawn assay to measure peptide-lipid II complex formation. Format: binding. The note with it: lipid II 300 μM, 2 μL spotted at edge of halo; lawns of E. faecium and S. aureus, overnight 37 °C. Here is the method: To assess the interaction between the HPLC purified peptide and lipid II, an overnight culture was introduced into 0.8% GM17 medium for E. faecium or LB medium for S. aureus (w/v, temperature 45 °C) at a final concentration of 1% (v/v). Subsequently, this mixture was evenly distributed onto 10 mL plates. The binding affinity of the peptide and lipid II was further examined by applying purified lipid II (300 μM, 2 μL) to the periphery of the antibiotic inhibition halo. Briefly, HPLC purified antimicrobials were initially applied to the agar plate, and once the antimicrobial solution drops had dried, lipid II was spotted along the edge of the inhibition halo. The plates were then incubated overnight at 37 °C.

Data set [9] in a line: Effect of temperature on antibacterial activity (thermal stability). Format: physicochemical. As to conditions: higher temperatures of 22, 55, 70, 90 °C, 8 h storage; read-out inhibition zone area on L. lactis MG1363 relative to 0 h; three independent experiments. Here is the method: Figure S4. Investigation of the thermal stability profile of nisin (compound 1) and compound 47. Thermal stability was evaluated across a temperature range from 22 to 90 °C within an 8-hour incubation period.
Relative antimicrobial activity of the peptides following exposure to different temperatures. The relative activity was determined by calculating the area at different time points divided by the area at the start point (labeled 0 h), multiplied by 100%. Three independent experiments were conducted.

The target of a further data set is proteinase K (Parengyodontium album, UniProt P06873). In words: Effect of proteolytic enzymes on antibacterial activity: proteinase K. The note with it: 30 μL peptide 1 mg mL^–1 in agar well with 1 mg mL^–1 proteinase K, pH 7.2, overnight 30 °C; read-out inhibition zone area on L. lactis MG1363 versus no-enzyme control; three independent experiments. Here is the method: (§3) Next the resistance against the proteolytic enzymes trypsin, chymotrypsin, and protease K was investigated by adding these enzymes in separate experiments to assay wells followed by overnight incubation at 30 °C.
(§4) The impact of proteolytic enzymes and temperature on antimicrobial activity was investigated using the representative strain L. lactis MG1363 through the agar well diffusion assay. Thirty microliters of the HPLC purified peptide (1 mg mL^–1) was directly introduced into the agar well containing a final concentration of 1 mg mL^–1 proteolytic enzymes (pH 7.2) or no proteolytic enzyme (control). The plates were incubated overnight at 30 °C followed by the measurement of inhibition zones. Temperature stability was assessed by incubating the peptide at 22, 55, 70, and 90 °C for the specified duration.

The test system of the next data set is human red blood cells. In words: Hemolysis assay. As to conditions: 200 mg/L versus MIC. The data set is classed as cell-based. The protocol: Considering the potential therapeutic application of a bacteriocin, ensuring its safety is of critical importance. Previous studies have identified hemolytic activities in certain bacteriocins, such as listeriolysin S from Listeria monocytogenes([33]) and cytolysin from Enterococcus faecalis.[34] […] Therefore, a close evaluation of the safety of new bacteriocins is essential. In this study, a hemolytic activity assay was conducted to assess the safety of compounds 16 and 47. In this assay, human blood cells were incubated with varying concentrations of compound 16, compound 47, and nisin, ranging from 0.39 to 200 mg/L. Following a 1 h incubation at 37 °C, we measured the OD414 of the supernatants, and hemolytic activities were calculated, with 10% Triton X-100 serving as a positive control.
Erythrocytes were sourced from a healthy human volunteer donor, and whole human blood was subjected to centrifugation at 600g for 15 min. Subsequently, plasma was removed, and the erythrocytes were subjected to three washes with PBS (pH 7) by centrifugation at 600g for 15 min each. […] The supernatant was transferred to a 96-well plate, and absorbance was measured at a wavelength of 414 nm using a Thermo Scientific Varioskan LUX multimode microplate reader. The absorbance, relative to the positive control treated with 10% Triton X-100, was defined as the percentage of hemolysis.

In a further data set the test system is chymotrypsin. Description: Effect of proteolytic enzymes on antibacterial activity: chymotrypsin. As to conditions: 30 μL peptide 1 mg mL^–1 in agar well with 1 mg mL^–1 chymotrypsin, pH 7.2, overnight 30 °C; read-out inhibition zone area on L. lactis MG1363 versus no-enzyme control; three independent experiments. The protocol:
as §3, §4

The test system of data set [10] is Enterococcus faecium LMG16003 (VRE). Format: cell-based. As to conditions: as stated in the abstract. The protocol: Minimal inhibitory concentration (MIC) values were determined through broth microdilution following standard guidelines.[29]

Converted amounts (≈) assume the structure as drawn.

Chain of proteinase K (P06873 106-384): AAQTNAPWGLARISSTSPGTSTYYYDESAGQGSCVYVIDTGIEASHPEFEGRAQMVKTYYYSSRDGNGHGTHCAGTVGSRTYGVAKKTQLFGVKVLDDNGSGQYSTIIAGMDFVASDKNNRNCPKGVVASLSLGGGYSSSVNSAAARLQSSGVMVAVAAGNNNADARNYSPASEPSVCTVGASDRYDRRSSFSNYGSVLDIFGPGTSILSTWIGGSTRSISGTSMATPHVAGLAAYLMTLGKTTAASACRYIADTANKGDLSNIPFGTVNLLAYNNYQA

Consider `C=C(NC(=O)[C@@H](NC(=O)[C@H](Cc1c[nH]cn1)NC(=O)[C@@H](NC(=O)[C@H](CO)NC(=O)[C@@H]1CS[C@@H](C)[C@H]2NC(=O)[C@H](C)NC(=O)[C@H](NC(=O)[C@H](CCCCN)NC(=O)[C@@H](NC(=O)[C@H](CC(N)=O)NC(=O)[C@@H]3CS[C@@H](C)[C@@H](NC(=O)[C@H](CCCCN)NC(=O)[C@@H]4CS[C@@H](C)[C@@H](NC(=O)[C@@H]5CSC[C@@H](NC(=O)/C(=C/C)NC(=O)[C@@H](N)[C@@H](C)CC)C(=O)N[C@@H]([C@@H](C)CC)C(=O)NC(=C)C(=O)N[C@@H](CC(C)C)C(=O)N5)C(=O)N5CCC[C@H]5C(=O)NCC(=O)N4)C(=O)NCC(=O)N[C@@H](C)C(=O)N[C@@H](CC(C)C)C(=O)N[C@@H](CCn4cc(CCCCCCCC)nn4)C(=O)NCC(=O)N3)C(C)C)[C@H](C)SC[C@H](NC2=O)C(=O)N[C@@H](Cc2c[nH]cn2)C(=O)N1)[C@@H](C)CC)C(C)C)C(=O)N[C@@H](CCCCN)C(=O)O` [compound 16], for which the “Antimicrobial activity, diameter rating” value with S. aureus LMG10147 is “+ (0–4 mm, +)”; with E. faecium LMG11423, “+++++ (16–20 mm, +++++)”; in data set [1] it was “++ (4–8 mm, + +)”; with Escherichia coli CECT101, “+ (0–4 mm, +)”; in data set [2] it was “++++ (12–16 mm, ++++)”; in data set [3] it was “+ (0–4 mm, +)”. For the same molecule, the “Antimicrobial activity, diameter rating” value with L. monocytogenes TT82E is listed as “++ (4–8 mm, + +)”; in data set [4], “++ (4–8 mm, + +)”; in data set [5] it was “++++ (12–16 mm, ++++)”; in the data set with B. cereus CH-85, “++ (4–8 mm, + +)”; in data set [6], “++++ (12–16 mm, ++++)”; in data set [7] it was “++++ (12–16 mm, ++++)”. In addition, in the data set on Enterococcus faecium (Figure 4, second round, 30 μL click reaction solution in 8 mm well, GM17 agar, overnight 37 °C, triplicate), the “Area1: area of the inhibition zone minus the well area, Enterococcus faecium” value is 51 mm^2. Further, the “Antibacterial activity against Enterococcus faecium (in words)” value in the data set with Enterococcus faecium is listed as “high potency of nisin against Enterococcus faecium was retained”. Moreover, the “Area2: area of the inhibition zone minus the well area, Listeria monocytogenes” value in the data set with Listeria monocytogenes is listed as 19 mm^2.
In the case of `C=C(NC(=O)[C@@H](NC(=O)[C@H](Cc1c[nH]cn1)NC(=O)[C@@H](NC(=O)[C@H](CO)NC(=O)[C@@H]1CS[C@@H](C)[C@H]2NC(=O)[C@H](C)NC(=O)[C@H](NC(=O)[C@H](CCCCN)NC(=O)[C@@H](NC(=O)[C@H](CC(N)=O)NC(=O)[C@@H]3CS[C@@H](C)[C@@H](NC(=O)[C@H](CCCCN)NC(=O)[C@@H]4CS[C@@H](C)[C@@H](NC(=O)[C@@H]5CSC[C@@H](NC(=O)/C(=C/C)NC(=O)[C@@H](N)[C@@H](C)CC)C(=O)N[C@@H]([C@@H](C)CC)C(=O)NC(=C)C(=O)N[C@@H](CC(C)C)C(=O)N5)C(=O)N5CCC[C@H]5C(=O)NCC(=O)N4)C(=O)NCC(=O)N[C@@H](C)C(=O)N[C@@H](CC(C)C)C(=O)N[C@@H](CCn4cc(CCCc5ccccc5)nn4)C(=O)NCC(=O)N3)C(C)C)[C@H](C)SC[C@H](NC2=O)C(=O)N[C@@H](Cc2c[nH]cn2)C(=O)N1)[C@@H](C)CC)C(C)C)C(=O)N[C@@H](CCCCN)C(=O)O` [compound 47], the “Antimicrobial activity, diameter rating” value was “+ (0–4 mm, +)” with S. aureus LMG10147; “+++++ (16–20 mm, +++++)” in the data set on E. faecium LMG11423; “++ (4–8 mm, + +)” in data set [1]; “+ (0–4 mm, +)” with Escherichia coli CECT101; “++++ (12–16 mm, ++++)” in data set [2]; “+ (0–4 mm, +)” in [3]. The “Antimicrobial activity, diameter rating” value is reported as “++ (4–8 mm, + +)” with L. monocytogenes TT82E; “++ (4–8 mm, + +)” in [4]; “++++ (12–16 mm, ++++)” in data set [5]; “++ (4–8 mm, + +)” in the data set on B. cereus CH-85; “++++ (12–16 mm, ++++)” in data set [6]; “++++ (12–16 mm, ++++)” in [7]. Besides, in the data set on Enterococcus faecium, the “Antibacterial activity against Enterococcus faecium (in words)” value is on record as “high potency of nisin against Enterococcus faecium was retained”. In addition, the “Binding to lipid II (effect of added purified lipid II on the inhibition halo)” value in [8] is listed as “retained its ability to bind to lipid II”. In addition, in data set [9], the “Loss in antimicrobial activity on storage at elevated temperature” value is on record as “Less than 40%”. Also, the “Loss in antimicrobial activity after exposure to proteinase K” value on proteinase K was determined as 77%. Besides, the “Concentration with minimal hemolytic activity (200 mg/L) relative to MIC against Enterococcus faecium” value with human red blood cells is 50 fold. In the data set on chymotrypsin, the “Loss in antimicrobial activity after exposure to chymotrypsin” value is on record as 16%. Moreover, the “MIC value against E. faecium strains” value in [10] was determined as 3.8 µg/mL (≈ 1.1 µM).

Source of the values: paper PMC11420946, “An Engineered Nisin Analogue with a Hydrophobic Moiety Attached at Position 17 Selectively Inhibits Enterococcus faecium Strains” (ACS Chemical Biology, 2024).
